Converted amounts (≈) assume the structure as drawn. “And” between values parts separate entries of the source, which are not always exact repeats. Equal values may be shown once. Read-outs that look alike come from different tables or passages of the source.
Experiments:
Type in all cases: cell-based
Alternaria tenuissima [1] = test: Liquid culture assay on 24 well plates, solo ai (EC95/MIC); conditions: for EC95: 24° C., 3-6 days; for MIC: Alternaria tenuissima, read-out: MIC Minimal inhibition concentration
Description: (§1) The following compounds and formulations were used: […]
(§2) Alternaria tenuissima, Penicillium citrinum, Stachybotrys chartarum, Aspergillus niger and Aureobasidium pullulans were separately cultivated on PDA media to […] sporulation. Spore suspensions were produced for each fungi.
(§3) For solo (i.e. single) ai testing the formulated fungicide (100 ul) was filled into the 24 well plates (8 different rates: 100-0.05 mg aiA final volume as described above) and 100 ul distilled water was added. Afterwards 800 ul of 0.3% PDA media was added to the plate. The spore suspension of the specific fungi was added to this media in advance containing approx. 100.000 spores/ml. The 24 well plates were sealed and incubated at 24° C.
(§4) Dependent on the growth properties of each organisms, the evaluation was done after 3 to 6 days, when the surface of the check well was covered with mycelium. The evaluation was performed by assessing the growth of the fungi related to the check growth. The results are expressed as % activity relative to the check (values of 0-100% growth). Afterwards the results were converted in % growth inhibition. EC95 values and also MIC (minimal inhibition concentration) values were derived for each compound.
(§5) For each solo compound a graph was drawn of percentage inhibition against the concentration of the fungicide. […] Also the concentration that gave the minimum inhibition concentration was derived as the MIC value.

Aspergillus niger [2] = test: as above; conditions: for EC95: 24° C., 3-6 days; for MIC: Aspergillus niger, read-out: MIC Minimal inhibition concentration
Description: as §1, §2, §3, §4, §5

Aureobasidium pullulans [3] = test: as above; conditions: for EC95: 24° C., 3-6 days; for MIC: Aureobasidium pullulans, read-out: MIC Minimal inhibition concentration
Description: as §1, §2, §3, §4, §5

Penicillium citrinum = test: as above; conditions: for EC95: 24° C., 3-6 days; for MIC: Penicillium citrinum, read-out: MIC Minimal inhibition concentration
Description: as §1, §2, §3, §4, §5

Stachybotrys chartarum [4] = test: as above; conditions: for EC95: 24° C., 3-6 days; for MIC: Stachybotrys chartarum, read-out: MIC Minimal inhibition concentration
Description: as §1, §2, §3, §4, §5

Alternaria tenuissima [5] = test: Synergy testing of 2-way mixtures, 24 well plates; conditions: A. tenuissima
Description: (§6) For synergism testing of the 2-way mixtures 100 ul of each fungicide were filled into the 24 well plates (8 different rates) and 800 ul of 0.3% PDA media containing the spore suspension was added (see above). Different ratios of the 2 fungicide rates were tested at the same time.
as §2
(§7) For the mixtures of different fungicides the synergism was calculated based on the Colby equation, which is described below: […]
(§8) A synergistic effect exists whenever the action of the active ingredient combination of the compound of formula I and one or more compounds of formula II is greater than the sum of the actions of the active ingredients applied individually.
(§9) The fungicidal action to be expected, We, for a given combination of two fungicides can be calculated as follows (see COLBY, S. R. “Calculating synergistic and antagonistic response of herbicide combinations”. Weeds 15, pages 20-22; 1967):
(§10) If the activity actually observed is greater than the expected value We, there is a synergistic effect.
(§11) All rates below are expressed as mg ai/l (i.e. ppm).

Aspergillus niger [6] = test: Synergy testing of 2-way mixtures, 24 well plates; conditions: A. niger
Description: as §6, §2, §7, §8, §9, §10, §11

Aureobasidium pullulans [7] = test: Synergy testing of 2-way mixtures, 24 well plates; conditions: A. pullulans
Description: as §6, §2, §7, §8, §9, §10, §11

Stachybotrys chartarum [8] = test: Synergy testing of 2-way mixtures, 24 well plates; conditions: S. chartarum
Description: as §6, §2, §7, §8, §9, §10, §11

Alternaria alternata = test: Agar growth medium petri dish test, visual assessment of fungus-free surface
Description: (§12) A fungal growth medium was made comprising yeast extract (4 g) agar (8 g), magnesium sulphate (0.2 g), sodium nitrate (2.4 g), potassium chloride (0.2 g), potassium dihydrogen orthophosphate (0.6 g), glycerol (8 ml), distilled water (390 ml). Fungicides as set out in Tables 1 to 4 were added at levels of 5000, 100, 10, 1, 0.1 and 0.01 mg fungicide/litre of growth medium to give […] different growth medium compositions for each fungicide. These growth media containing the fungicide were each put into petri dishes.
(§13) Aspergillus versicolor, Ulocladium chartarum, Mucor indicus and Alternaria alternata were separately propagated on Luria agar to suppress sporulation and mycelial plugs were transferred upside down onto the petri dishes containing the growth medium.
(§14) A visual assessment was made of the surface of the petri dishes. The result recorded was the percentage of the surface that remained free of fungus. This was recorded as percentage activity
(§15) For each fungicide, a graph was drawn of percentage activity against concentration of to fungicide in the growth medium. From this graph, the concentrations of fungicide required to achieve 50%, 80% and 95% activity was estimated. These figures are given in the results tables.

Aspergillus versicolor = test: as above; conditions: after 19 days at 25° C.
Description: as §12, §13, §14, §15

Mucor indicus = test: as above; conditions: after 3 days at 25° C., 'no effect' = less than 50% activity at highest dose rate of 100 mg/l
Description: as §12, §13, §14, §15

Ulocladium chartarum = test: as above; conditions: after 13 days at 20° C., 'no effect' = less than 50% activity at highest dose rate of 100 mg/l
Description: as §12, §13, §14, §15

[9] = A. tenuissima, rates 0-100 mg ai/l, mean values of n = 5
[10] = A. niger, rates 0-100 mg ai/l, mean values of n = 5
[11] = A. pullulans, rates 0-100 mg ai/l, mean values of n = 5
[12] = P. citrinum, rates 0-100 mg ai/l, mean values of n = 5
[13] = S. chartarum, rates 0-100 mg ai/l, mean values of n = 5
[14] = CCZ + FDL table, rate (PPZ) 3.1 mg ai/l
[15] = CCZ + FDL table, rate (PPZ) 1.6 mg ai/l

CC(C1CC1)C(O)(Cn1cncn1)c1ccc(Cl)cc1 (stereo not shown) [Cyproconazole]
EC95 (Alternaria tenuissima [1]; A. tenuissima): 10.2 mg ai/l | MIC (Alternaria tenuissima [1]; [9]): 12.5 µg/mL (≈ 42.8 µM) | EC95 (Aspergillus niger [2]; A. niger): 10.1 mg ai/l | MIC (Aspergillus niger [2]; [10]): 12.5 µg/mL (≈ 42.8 µM) | EC95 (Aureobasidium pullulans [3]; A. pullulans): 6.5 mg ai/l | MIC (Aureobasidium pullulans [3]; [11]): 12.5 µg/mL (≈ 42.8 µM) | EC95 (Penicillium citrinum; P. citrinum): 50 mg ai/l | MIC (Penicillium citrinum; [12]): 50 µg/mL (≈ 171 µM) | EC95 (Stachybotrys chartarum [4]; S. chartarum): >100 mg ai/l | MIC (Stachybotrys chartarum [4]; [13]): > 100 µg/mL | inh % (PPZ alone) (Alternaria tenuissima [5]; CCZ + FDL table, rate (PPZ) 0.8 mg ai/l): 10% | inh % (PPZ alone) (Alternaria tenuissima [5]; [14]): 30% | inh % (PPZ alone) (Aspergillus niger [6]; [15]): 0% | inh % (PPZ alone) (Aspergillus niger [6]; [14]): 0% | inh % (PPZ alone) (Aureobasidium pullulans [7]; [15]): 70%

CC1COC(Cn2cncn2)(c2ccc(Oc3ccc(Cl)cc3)cc2Cl)O1 (stereo not shown) [Difenoconazole]
EC95 (Alternaria tenuissima [1]; A. tenuissima): 0.7 mg ai/l | MIC (Alternaria tenuissima [1]; [9]): 0.8 µg/mL (≈ 1.97 µM) | EC95 (Aspergillus niger [2]; A. niger): 1.4 mg ai/l | MIC (Aspergillus niger [2]; [10]): 1.6 µg/mL (≈ 3.94 µM) | EC95 (Aureobasidium pullulans [3]; A. pullulans): 8 mg ai/l | MIC (Aureobasidium pullulans [3]; [11]): 12.5 µg/mL (≈ 30.8 µM) | EC95 (Penicillium citrinum; P. citrinum): 1.7 mg ai/l | MIC (Penicillium citrinum; [12]): 1.6 µg/mL (≈ 3.94 µM) | EC95 (Stachybotrys chartarum [4]; S. chartarum): 2.7 mg ai/l | MIC (Stachybotrys chartarum [4]; [13]): 3.1 µg/mL (≈ 7.63 µM) | inh % (DFZ alone) (Aspergillus niger [6]; DFZ 0.05 mg ai/l): 0% | inh % (DFZ alone) (Aspergillus niger [6]; DFZ 0.2 mg ai/l): 0% | inh % (DFZ alone) (Aspergillus niger [6]; DFZ 0.8 mg ai/l): 10% | inh % (DFZ alone) (Aureobasidium pullulans [7]; DFZ 0.2 mg ai/l): 70% | inh % (DFZ alone) (Aureobasidium pullulans [7]; DFZ 0.8 mg ai/l): 90% | inh % (DFZ alone) (Aureobasidium pullulans [7]; DFZ 1.6 mg ai/l): 90% | inh % (DFZ alone) (Aureobasidium pullulans [7]; DFZ 3.1 mg ai/l): 70% | inh % (DFZ alone) (Stachybotrys chartarum [8]; DFZ 0.8 mg ai/l): 50% | inh % (DFZ alone) (Stachybotrys chartarum [8]; DFZ 1.6 mg ai/l): 90%

N#Cc1c[nH]cc1-c1cccc2c1OC(F)(F)O2 [Fludioxonil]
Concentration required for 95% Activity (Alternaria alternata): 0.95 mg/L | Concentration required for 80% Activity (Aspergillus versicolor): 0.81 mg/L | Concentration required for 80% Activity (Mucor indicus): 2.8 mg/L | Concentration required for 80% Activity (Ulocladium chartarum): 0.28 mg/L | EC95 (Alternaria tenuissima [1]; A. tenuissima): 1.3 mg ai/l | MIC (Alternaria tenuissima [1]): 1.6 µg/mL (≈ 6.45 µM) | EC95 (Aspergillus niger [2]; A. niger): >100 mg ai/l | MIC (Aspergillus niger [2]): > 100 µg/mL | EC95 (Aureobasidium pullulans [3]; A. pullulans): >100 mg ai/l | MIC (Aureobasidium pullulans [3]): > 100 µg/mL | EC95 (Penicillium citrinum; P. citrinum): 0.18 mg ai/l | MIC (Penicillium citrinum): 0.2 µg/mL (≈ 0.806 µM) | EC95 (Stachybotrys chartarum [4]; S. chartarum): 0.18 mg ai/l | MIC (Stachybotrys chartarum [4]): 0.2 µg/mL (≈ 0.806 µM) | inh % (FDL alone) (Alternaria tenuissima [5]; FDL 0.2 mg ai/l, listed as FDL): 90% and 70% | inh % (FDL alone) (Alternaria tenuissima [5]; FDL 0.8 mg ai/l): 90% | inh % (FDL alone) (Aspergillus niger [6]; FDL 0.2 mg ai/l): 30% | inh % (FDL alone) (Aspergillus niger [6]; FDL 0.8 mg ai/l): 30% | inh % (FDL alone) (Aspergillus niger [6]; FDL 1.6 mg ai/l): 30% | inh % (FDL alone) (Aspergillus niger [6]; FDL 3.1 mg ai/l): 30% | inh % (FDL alone) (Aspergillus niger [6]; FDL 12.5 mg ai/l): 30% | inh % (FDL alone) (Aspergillus niger [6]; FDL 50 mg ai/l): 30% | inh % (FDL alone) (Aspergillus niger [6]; FDL 100 mg ai/l): 30% | inh % (FDL alone) (Aureobasidium pullulans [7]; FDL 0.8 mg ai/l): 10% | inh % (FDL alone) (Aureobasidium pullulans [7]; FDL 1.6 mg ai/l, listed as FDL): 0% and 10% | inh % (FDL alone) (Aureobasidium pullulans [7]; FDL 3.1 mg ai/l, listed as FDL): 0% and 10% | inh % (FDL alone) (Aureobasidium pullulans [7]; FDL 12.5 mg ai/l, listed as FDL): 0% and 10% | inh % (FDL alone) (Aureobasidium pullulans [7]; FDL 50 mg ai/l, listed as FDL): 0% and 10% | inh % (FDL alone) (Aureobasidium pullulans [7]; FDL 100 mg ai/l, listed as FDL): 0% and 10% | inh % (FDL alone) (Stachybotrys chartarum [8]; FDL 0.05 mg ai/l): 10%

CCCC1COC(Cn2cncn2)(c2ccc(Cl)cc2Cl)O1 (stereo not shown) [Propiconazole]
Concentration required for 95% Activity (Alternaria alternata): 16 mg/L | Concentration required for 80% Activity (Aspergillus versicolor): 9.2 mg/L | Concentration required for 80% Activity (Mucor indicus): 61 mg/L | Concentration required for 80% Activity (Ulocladium chartarum): 4.2 mg/L | EC95 (Alternaria tenuissima [1]; A. tenuissima): 10.1 mg ai/l | MIC (Alternaria tenuissima [1]; [9]): 12.5 µg/mL (≈ 36.5 µM) | EC95 (Aspergillus niger [2]; A. niger): 3 mg ai/l | MIC (Aspergillus niger [2]; [10]): 3.1 µg/mL (≈ 9.06 µM) | EC95 (Aureobasidium pullulans [3]; A. pullulans): 36 mg ai/l | MIC (Aureobasidium pullulans [3]; [11]): 50 µg/mL (≈ 146 µM) | EC95 (Penicillium citrinum; P. citrinum): 1.5 mg ai/l | MIC (Penicillium citrinum; [12]): 1.6 µg/mL (≈ 4.68 µM) | EC95 (Stachybotrys chartarum [4]; S. chartarum): >100 mg ai/l | MIC (Stachybotrys chartarum [4]; [13]): > 100 µg/mL | inh % (PPZ alone) (Alternaria tenuissima [5]; PPZ 0.8 mg ai/l): 0% | inh % (PPZ alone) (Alternaria tenuissima [5]; PPZ 1.6 mg ai/l): 10% | inh % (PPZ alone) (Alternaria tenuissima [5]; PPZ 3.1 mg ai/l): 30% | inh % (PPZ alone) (Aspergillus niger [6]; PPZ 0.05 mg ai/l): 0% | inh % (PPZ alone) (Aspergillus niger [6]; PPZ 0.2 mg ai/l): 0% | inh % (PPZ alone) (Aspergillus niger [6]; PPZ 0.8 mg ai/l): 0% | inh % (PPZ alone) (Aspergillus niger [6]; PPZ 1.6 mg ai/l): 30% | inh % (PPZ alone) (Aureobasidium pullulans [7]; PPZ 3.1 mg ai/l): 70% | inh % (PPZ alone) (Aureobasidium pullulans [7]; PPZ 12.5 mg ai/l): 70%

c1ccc2[nH]c(-c3cscn3)nc2c1 [Thiabendazole]
Concentration required for 95% Activity (Alternaria alternata): >5000 mg/L | Concentration required for 80% Activity (Aspergillus versicolor): 6.9 mg/L | Concentration required for 80% Activity (Mucor indicus): No effect | Concentration required for 80% Activity (Ulocladium chartarum): No effect
